Laboratory results taken from patent US11452710B1, “Micronutrient and plant extract composition and method of improving bone health” (priority 2022, dated 2022).

System: alkaline phosphatase (ALP)
Settings: 0.1-5 μg/ml, 48 h at 37° C., n=4; compared to the control and to the most stimulating agents (boron line 10, MSM line 15)
Procedure: In vitro differentiation (alkaline phosphatase activity (ALP) and core-binding factor alpha 1 (Cbfa-1) as a marker) assay: Human osteoblasts (1×10^5 cells/well of a 96-well plate) in a 100 μl cell culture medium were exposed to select micronutrients and plant extracts (0.1-5 μg/ml) for 48 h at 37° C., and lysed with assay buffer. Subsequently, 5 mM p-nitrophenyl phosphate (pNPP), as a phosphate substrate for alkaline phosphates, was added into all experimental wells for 1 h, followed by a stop solution. The absorbance was measured at 450 nm within 5 min. using a microplate reader.

CS(C)(=O)=O [MSM, methylsulfonylmethane]
alkaline phosphatase (ALP) activity level in human osteoblasts: most stimulating agents

boron
alkaline phosphatase (ALP) activity level in human osteoblasts: most stimulating agents
